Tested on: S. cerevisiae RPL19A-GFP strain, flow cytometry GFP, 3 h
Test: TOR pathway reporter RPL19A-GFP modulators – cell-based, cherry pick 3, SAR, flow cytometry GFP, multiplex, dose response (AID 488814)

SMILES | EC50 [µM]
CC1=NNC(=O)/C1=C\c1cn(-c2ccccc2)nc1-c1ccc(F)cc1 | 15.3
Cc1ccc2c(Cl)cc(Cl)c(O)c2n1 | 14.7
Cc1ccc(NN2C(=O)C=C(c3ccccc3)C2=O)cc1 | 0.876

Reference: PubChem BioAssay AID488814 (NMMLSC, 2010)
